Common to all, as to assay type: cell-based
The target in assay [1] is T1, Solute carrier organic anion transporter family member 1B1 (Homo sapiens, UniProt Q9Y6L6).
T1 sequence (Q9Y6L6 whole entry): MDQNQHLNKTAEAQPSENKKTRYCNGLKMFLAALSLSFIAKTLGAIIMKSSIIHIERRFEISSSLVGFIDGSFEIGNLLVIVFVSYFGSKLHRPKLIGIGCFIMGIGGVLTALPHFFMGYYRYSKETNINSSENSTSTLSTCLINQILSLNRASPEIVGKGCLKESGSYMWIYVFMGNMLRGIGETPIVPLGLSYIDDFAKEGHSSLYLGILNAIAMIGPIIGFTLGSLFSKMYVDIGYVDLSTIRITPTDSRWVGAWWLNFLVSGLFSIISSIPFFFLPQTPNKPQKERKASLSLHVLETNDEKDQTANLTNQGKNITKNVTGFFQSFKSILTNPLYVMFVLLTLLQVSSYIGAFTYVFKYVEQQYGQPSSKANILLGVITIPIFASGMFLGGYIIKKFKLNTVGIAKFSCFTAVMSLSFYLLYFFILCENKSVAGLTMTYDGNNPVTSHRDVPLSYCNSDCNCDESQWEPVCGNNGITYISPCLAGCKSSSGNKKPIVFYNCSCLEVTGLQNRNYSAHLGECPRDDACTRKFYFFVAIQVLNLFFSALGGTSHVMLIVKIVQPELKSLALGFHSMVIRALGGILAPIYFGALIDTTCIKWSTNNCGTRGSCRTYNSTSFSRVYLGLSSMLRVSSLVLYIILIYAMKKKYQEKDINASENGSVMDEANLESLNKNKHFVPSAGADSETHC
Kind of assay: Inhibition of OATP1B1 (unknown origin) transfected in human A-431 cells assessed as inhibition of DHPDS uptake preincubated for 5 mins followed by DHPDS addition and measured after 10 mins by fluorescence based analysis.

The target of assay [2] is T2, Broad substrate specificity ATP-binding cassette transporter ABCG2 (Homo sapiens, UniProt Q9UNQ0).
T2 sequence (Q9UNQ0 whole entry): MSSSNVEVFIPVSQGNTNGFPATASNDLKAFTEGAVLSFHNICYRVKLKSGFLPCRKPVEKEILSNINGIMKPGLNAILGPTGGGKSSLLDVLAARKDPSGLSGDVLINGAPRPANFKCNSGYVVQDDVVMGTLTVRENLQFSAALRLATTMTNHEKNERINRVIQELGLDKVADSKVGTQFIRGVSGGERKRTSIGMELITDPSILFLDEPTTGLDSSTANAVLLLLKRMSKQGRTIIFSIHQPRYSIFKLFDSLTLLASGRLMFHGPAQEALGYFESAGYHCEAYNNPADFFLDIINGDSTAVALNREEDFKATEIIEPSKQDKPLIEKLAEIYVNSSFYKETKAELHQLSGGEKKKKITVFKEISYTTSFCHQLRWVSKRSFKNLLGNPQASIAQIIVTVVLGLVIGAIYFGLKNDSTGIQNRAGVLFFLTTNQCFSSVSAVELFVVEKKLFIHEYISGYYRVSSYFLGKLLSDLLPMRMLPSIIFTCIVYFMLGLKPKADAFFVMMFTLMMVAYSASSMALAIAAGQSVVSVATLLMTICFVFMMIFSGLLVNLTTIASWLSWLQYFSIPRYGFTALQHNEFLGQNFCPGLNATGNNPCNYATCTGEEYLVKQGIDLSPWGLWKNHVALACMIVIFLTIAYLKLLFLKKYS
Description: Inhibition of ABCG2 (unknown origin) expressed in dog MDCK-II-BCRP cells assessed as increase in pheophorbide A fluorescence intensity using pheophorbide as tracer preincubated for 30 mins followed by pheophorbide addition and measured for 180 mins by flow cytometry. On the technique in general: A flow cytometer gives signals particle by particle.

The target in assay [3] is Multidrug resistance-associated protein 1 (Homo sapiens, UniProt P33527). Kind of assay: Inhibition of ABCC1 in human NCI-H69AR cells assessed as increase in daunorubicin fluorescence intensity using daunorubicin as tracer preincubated for 30 mins followed by daunorubicin addition and measured for 180 mins by flow cytometry.
Sequence of Multidrug resistance-associated protein 1 (P33527 whole entry): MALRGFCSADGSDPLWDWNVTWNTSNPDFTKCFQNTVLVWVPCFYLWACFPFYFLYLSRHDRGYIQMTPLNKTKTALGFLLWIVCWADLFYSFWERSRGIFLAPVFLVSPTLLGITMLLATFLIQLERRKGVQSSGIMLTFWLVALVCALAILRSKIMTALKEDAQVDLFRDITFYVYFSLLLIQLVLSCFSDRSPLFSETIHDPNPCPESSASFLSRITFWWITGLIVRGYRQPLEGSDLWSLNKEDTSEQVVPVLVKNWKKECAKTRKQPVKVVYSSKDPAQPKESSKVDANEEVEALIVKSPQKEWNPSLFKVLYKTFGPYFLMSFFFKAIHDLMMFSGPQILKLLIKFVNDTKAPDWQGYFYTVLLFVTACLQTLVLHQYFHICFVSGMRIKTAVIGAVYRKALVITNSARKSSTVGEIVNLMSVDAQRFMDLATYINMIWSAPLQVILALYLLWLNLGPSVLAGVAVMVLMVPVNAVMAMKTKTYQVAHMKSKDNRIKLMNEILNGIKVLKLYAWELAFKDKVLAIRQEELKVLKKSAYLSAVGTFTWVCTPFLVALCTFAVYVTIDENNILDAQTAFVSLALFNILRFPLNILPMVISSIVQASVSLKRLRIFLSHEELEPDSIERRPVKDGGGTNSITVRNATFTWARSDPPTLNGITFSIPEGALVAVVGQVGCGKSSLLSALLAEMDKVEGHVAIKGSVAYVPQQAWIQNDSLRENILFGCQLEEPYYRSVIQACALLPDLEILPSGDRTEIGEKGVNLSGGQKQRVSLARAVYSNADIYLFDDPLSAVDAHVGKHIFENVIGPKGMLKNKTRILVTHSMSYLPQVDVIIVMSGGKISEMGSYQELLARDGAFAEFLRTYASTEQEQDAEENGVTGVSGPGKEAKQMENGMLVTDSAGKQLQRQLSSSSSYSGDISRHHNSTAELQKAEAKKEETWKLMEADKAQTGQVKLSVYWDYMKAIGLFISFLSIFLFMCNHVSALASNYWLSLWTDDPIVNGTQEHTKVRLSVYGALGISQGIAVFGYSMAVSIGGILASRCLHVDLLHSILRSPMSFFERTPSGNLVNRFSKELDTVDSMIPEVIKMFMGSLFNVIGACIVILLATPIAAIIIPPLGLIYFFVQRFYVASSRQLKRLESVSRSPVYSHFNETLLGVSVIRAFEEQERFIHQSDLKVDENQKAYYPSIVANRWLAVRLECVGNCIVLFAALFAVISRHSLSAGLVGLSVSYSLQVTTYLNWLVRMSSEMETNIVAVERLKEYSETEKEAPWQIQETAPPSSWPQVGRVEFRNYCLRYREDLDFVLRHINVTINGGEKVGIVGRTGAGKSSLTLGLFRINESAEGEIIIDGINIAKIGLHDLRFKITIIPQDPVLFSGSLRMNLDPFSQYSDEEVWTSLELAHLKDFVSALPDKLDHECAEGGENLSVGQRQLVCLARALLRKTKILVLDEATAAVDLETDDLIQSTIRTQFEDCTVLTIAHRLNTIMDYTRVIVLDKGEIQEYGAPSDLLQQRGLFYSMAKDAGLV
Assay [4] addresses T3, Solute carrier organic anion transporter family member 1A2 (Homo sapiens, UniProt P46721).
T3 sequence (P46721 whole entry): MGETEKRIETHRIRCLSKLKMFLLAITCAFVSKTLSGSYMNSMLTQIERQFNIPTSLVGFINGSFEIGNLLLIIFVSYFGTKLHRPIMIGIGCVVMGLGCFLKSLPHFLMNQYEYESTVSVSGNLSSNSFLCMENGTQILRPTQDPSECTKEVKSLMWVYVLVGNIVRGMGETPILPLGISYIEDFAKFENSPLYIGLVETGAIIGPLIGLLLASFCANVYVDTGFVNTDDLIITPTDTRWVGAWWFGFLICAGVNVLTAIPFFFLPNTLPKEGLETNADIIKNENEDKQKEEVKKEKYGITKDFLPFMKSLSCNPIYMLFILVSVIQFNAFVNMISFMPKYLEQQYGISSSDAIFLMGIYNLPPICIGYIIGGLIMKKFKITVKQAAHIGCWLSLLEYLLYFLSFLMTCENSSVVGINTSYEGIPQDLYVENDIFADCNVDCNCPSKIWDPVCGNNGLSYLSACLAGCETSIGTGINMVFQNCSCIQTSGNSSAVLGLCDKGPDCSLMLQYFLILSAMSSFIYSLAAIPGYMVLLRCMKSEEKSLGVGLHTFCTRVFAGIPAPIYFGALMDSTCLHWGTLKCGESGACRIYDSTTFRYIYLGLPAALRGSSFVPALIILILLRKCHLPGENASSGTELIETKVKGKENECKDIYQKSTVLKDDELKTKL
Kind of assay: Inhibition of OATP1A2 (unknown origin) transfected in human A-431 cells assessed as inhibition of SR101 uptake preincubated for 5 mins followed by SR101 addition and measured after 10 mins by fluorescence based analysis.

Assay [5] concerns the target T4, Solute carrier family 22 member 2 (Homo sapiens, UniProt O15244).
T4 sequence (O15244 whole entry): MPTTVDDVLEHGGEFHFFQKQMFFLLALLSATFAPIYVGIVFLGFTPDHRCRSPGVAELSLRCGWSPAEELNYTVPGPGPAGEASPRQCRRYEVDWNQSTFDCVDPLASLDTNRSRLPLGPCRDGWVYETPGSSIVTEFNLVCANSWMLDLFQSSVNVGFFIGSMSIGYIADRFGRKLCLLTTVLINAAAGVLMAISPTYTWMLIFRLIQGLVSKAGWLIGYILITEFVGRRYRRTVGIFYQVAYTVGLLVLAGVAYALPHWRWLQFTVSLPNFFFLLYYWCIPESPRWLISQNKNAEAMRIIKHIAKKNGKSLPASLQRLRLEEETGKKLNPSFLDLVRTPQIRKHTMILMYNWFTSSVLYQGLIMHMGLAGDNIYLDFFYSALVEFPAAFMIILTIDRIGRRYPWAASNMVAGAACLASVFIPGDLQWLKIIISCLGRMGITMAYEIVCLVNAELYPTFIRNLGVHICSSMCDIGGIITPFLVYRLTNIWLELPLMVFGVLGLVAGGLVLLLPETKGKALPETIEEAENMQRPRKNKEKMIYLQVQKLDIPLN
Kind of assay: Inhibition of OCT2 (unknown origin) expressed in HEK293 cells assessed as inhibition of ASP+ uptake incubated for 5 mins by fluorescence based analysis.

Regarding `COc1cccc(NC(=O)Cn2nc(C(=O)Nc3cccc(OC)c3)c3ccccc32)c1`, the IC50 in assay [1] is 4.96 µM; in assay [2], 1.33 µM; in assay [3] it was 1.48 µM; in assay [4] it was 0.42 µM; in assay [5] it was 20.8 µM.

As for `O=C(Cn1nc(C(=O)Nc2ccccn2)c2ccccc21)Nc1cc(Cl)ccc1Cl`, the IC50 in assay [1] stood at 16.8 µM; in assay [2], 1.17 µM; in assay [3], 0.492 µM; in assay [4], 1.32 µM; in assay [5], 50.3 µM.

In the case of `O=C(Cn1nc(C(=O)Nc2cccnc2)c2ccccc21)Nc1ccc(Cl)cc1`, the IC50 came out at 17.9 µM in assay [1]; 14.2 µM in assay [2]; 5.15 µM in assay [3]; 0.422 µM in assay [4]; 60.1 µM in assay [5].

On to `COc1cccc(NC(=O)c2nn(CC(=O)Nc3ccccc3OC)c3ccccc23)c1`, for which the IC50 in assay [1] was determined as 5.66 µM; in assay [2] it was 1.66 µM; in assay [3], 2.19 µM; in assay [4] it was 0.237 µM; in assay [5] it was 11.8 µM.

In general, IC50 refers to the concentration that inhibits the measured activity by half.

(Values after ChEMBL document CHEMBL6109064, “Functional and structural polypharmacology of indazole-based privileged ligands to tackle the undruggability of membrane transporters” (Eur J Med Chem, 2025).)
